This passage reports T/C results from PubChem BioAssay AID342 (DTP/NCI, 2004).

In the assay the test system is Swiss mice, Sarcoma 180 sc, mean tumor weight T/C. Description: NCI In Vivo Anticancer Drug Screen. Data for tumor model Sarcoma 180 (subcutaneous) in Swiss mice. As to conditions: endpoint: mean tumor weight, higher = larger tumour. Summed up:
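Tumor-bearing mice, transplantable tumor; readout survival or tumor size; result = T/C, treated vs vehicle control.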

Where [1] appears, read: dose: 200.0 mg/kg/injection, schedule: Q01DX007 (ip), vehicle: other.

Several values for one entry are separate records, joined by “and”; a condition that tells them apart may be missing. Equal values may be shown once.

The term T/C denotes the ratio of treated to control.

As to `COC(=O)C1=COC(C)C2CN3CCc4c([nH]c5cc(OC)ccc45)C3CC12` (configuration not stated), the T/C (dose: 50.0 mg/kg/injection, schedule: Q01DX007 (ip), vehicle: other) is 91 % of control; the T/C (dose: 100.0 mg/kg/injection, schedule: Q01DX007 (ip), vehicle: other) was 89 % of control; the T/C under setting [1] was 75 % of control.

On to `C1CCCNCC1`, for which the T/C reads like this: (dose: 15.5 mg/kg/injection, schedule: Q01DX007 (ip), vehicle: other) 92 % of control; (dose: 31.0 mg/kg/injection, schedule: Q01DX007 (ip), vehicle: other) 69 % of control; (dose: 62.5 mg/kg/injection, schedule: Q01DX007 (ip), vehicle: other) 103 % of control; (dose: 125.0 mg/kg/injection, schedule: Q01DX007 (ip), vehicle: other) 69 % of control; under setting [1], 69 % of control.

With `N=[N+]=CC(=O)OCC(N)C(=O)O` (configuration not stated), the T/C reads like this: (dose: 0.25 mg/kg/injection, schedule: Q#A X014 (ip), vehicle: carboxymethylcellulose (CMC)) 61 % of control; (dose: 0.5 mg/kg/injection, schedule: Q#A X014 (ip), vehicle: carboxymethylcellulose (CMC)) 35 % of control; (dose: 0.57 mg/kg/injection, schedule: Q#A X014 (ip), vehicle: carboxymethylcellulose (CMC)) 65 % of control; (dose: 0.92 mg/kg/injection, schedule: Q01DX007 (ip), vehicle: carboxymethylcellulose (CMC)) 33 % of control; (dose: 1.0 mg/kg/injection, schedule: Q#A X014 (ip), vehicle: carboxymethylcellulose (CMC)) 25 % of control; (dose: 1.15 mg/kg/injection, schedule: Q01DX007 (ip), vehicle: carboxymethylcellulose (CMC)) 39 % of control. In addition, the T/C is, setting by setting: (dose: 1.15 mg/kg/injection, schedule: Q#A X014 (ip), vehicle: carboxymethylcellulose (CMC)) 7 % of control; (dose: 1.53 mg/kg/injection, schedule: Q01DX007 (ip), vehicle: carboxymethylcellulose (CMC)) 30 % of control; (dose: 2.1 mg/kg/injection, schedule: Q01DX007 (ip), vehicle: carboxymethylcellulose (CMC)) 11 % of control and 12 % of control; (dose: 2.3 mg/kg/injection, schedule: Q01DX007 (ip), vehicle: carboxymethylcellulose (CMC)) 14 % of control; (dose: 2.3 mg/kg/injection, schedule: Q#A X014 (ip), vehicle: carboxymethylcellulose (CMC)) 3 % of control; (dose: 4.2 mg/kg/injection, schedule: Q01DX007 (ip), vehicle: carboxymethylcellulose (CMC)) 3 % of control and 7 % of control. Besides, the T/C (dose: 4.6 mg/kg/injection, schedule: Q#A X014 (ip), vehicle: carboxymethylcellulose (CMC)) was 4 % of control; the T/C (dose: 6.3 mg/kg/injection, schedule: Q01DX007 (ip), vehicle: carboxymethylcellulose (CMC)) was 2 % of control and 5 % of control.

Turning to `CC(=O)NNC(=O)c1ccccn1`, the T/C was 112 % of control (dose: 37.5 mg/kg/injection, schedule: Q01DX007 (ip), vehicle: water); 104 % of control (dose: 75.0 mg/kg/injection, schedule: Q01DX007 (ip), vehicle: water); 89 % of control (dose: 100.0 mg/kg/injection, schedule: Q01DX007 (ip), vehicle: water); 98 % of control (dose: 200.0 mg/kg/injection, schedule: Q01DX007 (ip), vehicle: water).

Consider `O=C(c1ccccc1)C(C(=O)c1ccccc1)C(=O)c1ccccc1.O=C(c1ccccc1)C(C(=O)c1ccccc1)C(=O)c1ccccc1.[Cu]`, for which the T/C (dose: 55.0 mg/kg/injection, schedule: Q01DX007 (ip), vehicle: carboxymethylcellulose (CMC)) was 68 % of control and 70 % of control; the T/C (dose: 85.0 mg/kg/injection, schedule: Q01DX007 (ip), vehicle: carboxymethylcellulose (CMC)) was 63 % of control and 84 % of control; the T/C (dose: 190.0 mg/kg/injection, schedule: Q01DX007 (ip), vehicle: carboxymethylcellulose (CMC)) was 60 % of control and 64 % of control; the T/C (dose: 284.0 mg/kg/injection, schedule: Q01DX007 (ip), vehicle: carboxymethylcellulose (CMC)) is 66 % of control.

Regarding `CC1=C(CO)C(=O)O[C@@H]([C@@H](C)[C@H]2CC[C@H]3[C@@H]4C[C@H]5O[C@]56[C@@H](O)C=CC(=O)[C@]6(C)[C@H]4CC[C@]23C)C1`, the T/C (dose: 10.0 mg/kg/injection, schedule: Q01DX007 (ip), vehicle: carboxymethylcellulose (CMC)) was 64 % of control; the T/C (dose: 13.3 mg/kg/injection, schedule: Q01DX007 (ip), vehicle: saline) was 97 % of control; the T/C (dose: 13.7 mg/kg/injection, schedule: Q01DX007 (ip), vehicle: saline) was 85 % of control; the T/C (dose: 16.0 mg/kg/injection, schedule: Q01DX007 (ip), vehicle: saline) was 77 % of control; the T/C (dose: 16.0 mg/kg/injection, schedule: Q01DX007 (sc), vehicle: olive oil, sesame oil, peanut oil) is 90 % of control; the T/C (dose: 16.0 mg/kg/injection, schedule: Q01DX007 (sc), vehicle: steriod suspending solution) is 93 % of control. Also, the T/C reads like this: (dose: 18.0 mg/kg/injection, schedule: Q01DX007 (ip), vehicle: saline) 60 % of control; (dose: 24.0 mg/kg/injection, schedule: Q01DX007 (ip), vehicle: saline) 54 % of control; (dose: 24.0 mg/kg/injection, schedule: Q01DX007 (sc), vehicle: olive oil, sesame oil, peanut oil) 109 % of control; (dose: 24.0 mg/kg/injection, schedule: Q01DX007 (sc), vehicle: steriod suspending solution) 66 % of control; (dose: 33.0 mg/kg/injection, schedule: Q01DX007 (ip), vehicle: saline) 25 % of control; (dose: 36.0 mg/kg/injection, schedule: Q01DX007 (sc), vehicle: olive oil, sesame oil, peanut oil) 77 % of control. Moreover, under “dose: 36.0 mg/kg/injection, schedule: Q01DX007 (sc), vehicle: steriod suspending solution”, the T/C was 79 % of control.

Take `NCCc1ccccc1`: the T/C reads like this: (dose: 31.3 mg/kg/injection, schedule: Q01DX007 (ip), vehicle: saline) 83 % of control; (dose: 62.5 mg/kg/injection, schedule: Q01DX007 (ip), vehicle: saline) 32 % of control.

On to `c1ccc2cc3c(cc2c1)Cn1c-3nc2ccccc21`, for which the T/C (dose: 25.0 mg/kg/injection, schedule: Q01DX007 (ip), vehicle: carboxymethylcellulose (CMC)) was 76 % of control; the T/C (dose: 50.0 mg/kg/injection, schedule: Q01DX007 (ip), vehicle: carboxymethylcellulose (CMC)) was 86 % of control; the T/C (dose: 200.0 mg/kg/injection, schedule: Q01DX007 (ip), vehicle: carboxymethylcellulose (CMC)) is 53 % of control and 57 % of control; the T/C (dose: 400.0 mg/kg/injection, schedule: Q01DX007 (ip), vehicle: carboxymethylcellulose (CMC)) was 54 % of control; the T/C (dose: 500.0 mg/kg/injection, schedule: Q01DX007 (ip), vehicle: carboxymethylcellulose (CMC)) is 27 % of control and 34 % of control; the T/C (dose: 800.0 mg/kg/injection, schedule: Q01DX007 (ip), vehicle: carboxymethylcellulose (CMC)) was 38 % of control.

For the compound `CCC(c1ccc2cc(OC)ccc2c1)C(C)(C)C(=O)F` (configuration not stated), the T/C (dose: 55.0 mg/kg/injection, schedule: Q01DX007 (sc), vehicle: steriod suspending solution) is 35 % of control and 52 % of control; the T/C (dose: 83.0 mg/kg/injection, schedule: Q01DX007 (sc), vehicle: steriod suspending solution) was 31 % of control and 49 % of control; the T/C (dose: 125.0 mg/kg/injection, schedule: Q01DX007 (sc), vehicle: steriod suspending solution) is 27 % of control and 39 % of control; the T/C (dose: 188.0 mg/kg/injection, schedule: Q01DX007 (sc), vehicle: steriod suspending solution) was 39 % of control and 40 % of control.

For the compound `O=C1CN(/N=C\c2ccc([N+](=O)[O-])o2)C(=O)N1`, the T/C is 91 % of control (dose: 6.25 mg/kg/injection, schedule: Q#A X014 (ip), vehicle: carboxymethylcellulose (CMC)); 94 % of control (dose: 12.5 mg/kg/injection, schedule: Q#A X014 (ip), vehicle: carboxymethylcellulose (CMC)); 106 % of control (dose: 15.5 mg/kg/injection, schedule: Q01DX007 (ip), vehicle: carboxymethylcellulose (CMC)); 92 % of control (dose: 21.0 mg/kg/injection, schedule: Q01DX007 (ip), vehicle: carboxymethylcellulose (CMC)); 97 % of control (dose: 25.0 mg/kg/injection, schedule: Q#A X014 (ip), vehicle: carboxymethylcellulose (CMC)); 88 % of control (dose: 42.0 mg/kg/injection, schedule: Q01DX007 (ip), vehicle: carboxymethylcellulose (CMC)). In addition, the T/C is, setting by setting: (dose: 50.0 mg/kg/injection, schedule: Q#A X014 (ip), vehicle: carboxymethylcellulose (CMC)) 27 % of control; (dose: 84.0 mg/kg/injection, schedule: Q01DX007 (ip), vehicle: carboxymethylcellulose (CMC)) 103 % of control.

Turning to `C[C@]12CC[C@H](O)CC1=CC[C@@H]1[C@@H]2[C@@H](O)C[C@@]2(C)[C@H]1CC[C@]2(C)O`, the T/C runs as follows: (dose: 25.0 mg/kg/injection, schedule: Q#A X014 (sc), vehicle: steriod suspending solution) 87 % of control; (dose: 100.0 mg/kg/injection, schedule: Q#A X014 (sc), vehicle: steriod suspending solution) 113 % of control; (dose: 200.0 mg/kg/injection, schedule: Q#A X014 (sc), vehicle: steriod suspending solution) 76 % of control.

With `Clc1[nH]nc2ccccc12`, where the note is “dose: 42.0 mg/kg/injection, schedule: Q#A X014 (ip), vehicle: methylcellulose (MC)”, the T/C is 62 % of control and 85 % of control (2×).
